Measured values taken from patent US20130115671A1, “ENZYMES FROM CONIDIOBOLUS BREFELDIANUS AND PROCESS FOR PREPARATION THEREOF” (Council of Scientific and Industrial Research, priority 2010, published 2013).
Values joined by “and” are separate entries in the source; they are usually repeats but may differ in a detail not shown here. Equal values may be shown once. Read-outs that look alike come from different tables or passages of the source.

Columns and labels:
[1] = test system: protease from Conidiobolus brefeldianus MTCC 5185; assay: Stability of protease in presence of organic solvents at 28° C.; format: physicochemical; set-up: key to residual activity of protease, 0 h / residual activity of protease, 12 h: % of initial activity with respective solvent (initial = 100%); details: crude protease, 20% (v/v) solvent
Procedure: This example illustrates the effect of water miscible as well as water immiscible organic solvents on stability of crude protease at 28° C. […] Samples were removed at different time intervals and residual activity was estimated. Sample without organic solvent served as control. Initial activity with respective solvents was taken as 100% (Table 17). […] (Table 17).

[2] = test system: protease from Conidiobolus brefeldianus MTCC 5185; assay: Stability of protease in presence of organic solvents at 37° C.; format: physicochemical; details: 20% (v/v) solvent; for Residual Activity (%) of protease, 30 min: pH 7, 30 min; for Residual Activity (%) of protease, 60 min: pH 7, 60 min; for Residual Activity (%) of protease, 120 min: pH 7, 120 min; for Residual Activity (%) of protease, 240 min: pH 7, 240 min; for Residual Activity (%) of protease, 0: crude protease, pH 7, 0 min
Procedure: This example illustrates the effect of water miscible as well as water immiscible organic solvents on stability of crude protease at 37° C. […] Samples were removed at different time intervals and residual activity was estimated. Sample without organic solvent served as control.

[3] = test system: protease secreted by Conidiobolus brefeldianus MTCC 5185; assay: Effect of metals on protease activity; format: biochemical
[4] = test system: protease from Conidiobolus brefeldianus MTCC 5185
Procedure: This example illustrates the stability of the protease in presence of salts. […] Aliquots were removed at regular intervals of 30 min and residual activity was estimated at 50° C., pH 9.

[5] = test system: protease from Conidiobolus brefeldianus MTCC 5185; assay: Stability of protease at 50° C. in presence of sugar alcohols; format: physicochemical; set-up: unit not given here
Procedure: Ultrafiltered protease as described in example 27 was incubated at 50° C. in presence of glycerol, mannitol, sorbitol and xylitol at 20% concentration up to 3 h. Aliquots were removed at regular intervals of 30 min and residual activity was estimated at 50° C., pH 9.

[6] = test system: protease from Conidiobolus brefeldianus MTCC 5185; assay: Stability of protease at 50° C. in presence of trehalose and sorbitol; format: physicochemical; set-up: unit not given here
From the text: Stability increased with increasing concentration of trehalose and sorbitol.

[7] = 10 mM CaCl2, 0.5M NaCl, 0.5M glycine or 15% (NH4)2SO4, 0 min
[8] = salt concentration as in column head, 30 min
[9] = salt concentration as in column head, 60 min
[10] = salt concentration as in column head, 90 min
[11] = salt concentration as in column head, 120 min
[12] = salt concentration as in column head, 180 min
[13] = metal 5 mM in assay mixture, crude protease
[14] = ultrafiltered protease with 20% sugar alcohol, 0 min

CC(C)=O [Acetone, acetone]
residual activity of protease, 0 h [1]: 100 | residual activity of protease, 5 h [1]: 95.66 | residual activity of protease, 12 h [1]: 55.51 | Residual Activity (%) of protease, 30 min [2]: 91.66% | Residual Activity (%) of protease, 60 min [2]: 81.10% | Residual Activity (%) of protease, 120 min [2]: 60.57% | Residual Activity (%) of protease, 240 min [2]: 29.53% | Residual Activity (%) of protease, 0 [2]: 100%

CC#N [Acetonitrile, acetonitrile]
residual activity of protease, 0 h [1]: 100 | residual activity of protease, 5 h [1]: 98.31 | residual activity of protease, 12 h [1]: 49.90 | Residual Activity (%) of protease, 30 min [2]: 37.19% | Residual Activity (%) of protease, 60 min [2]: 36.40% | Residual Activity (%) of protease, 120 min [2]: 17.52% | Residual Activity (%) of protease, 240 min [2]: 13.45% | Residual Activity (%) of protease, 0 [2]: 100%

[Ca+2].[Cl-].[Cl-] [CaCl2, Calcium chloride]
Relative Activity (%) of protease [3]: 118.25% | effect on protease activity [3]: active | Residual Activity (%) of protease at 50° C. [4, 7]: 100.00% | Residual Activity (%) of protease at 50° C. [4, 8]: 91.70% | Residual Activity (%) of protease at 50° C. [4, 9]: 83.17% | Residual Activity (%) of protease at 50° C. [4, 10]: 70.83% | Residual Activity (%) of protease at 50° C. [4, 11]: 63.83% | Residual Activity (%) of protease at 50° C. [4, 12]: 54.65% | Residual Activity (%) of protease at 50° C. ([4]; salt concentration as in column head, 180 min, listed as Calcium chloride): around 55%

[Cl][Cd][Cl] [CdCl2]
effect on protease activity ([3]; metal 5 mM): active | Relative Activity (%) of protease [3, 13]: 114.30%

[Cl-].[Cl-].[Co+2] [CoCl2]
Relative Activity (%) of protease [3]: 118.71% | effect on protease activity [3]: active

[Cl][Cu][Cl] [CuCl2]
Relative Activity (%) of protease [3, 13]: 12.78%

[Cl][Hg][Cl] [HgCl2]
effect on protease activity ([3]; metal 5 mM): totally inhibited | Relative Activity (%) of protease [3, 13]: 3.27%

CC(C)O [Isopropanol, isopropanol]
residual activity of protease, 0 h [1]: 100 | residual activity of protease, 5 h [1]: 100.29 | residual activity of protease, 12 h [1]: 57.79 | Residual Activity (%) of protease, 30 min [2]: 46.06% | Residual Activity (%) of protease, 60 min [2]: 34.35% | Residual Activity (%) of protease, 120 min [2]: 18.73% | Residual Activity (%) of protease, 240 min [2]: 17.11% | Residual Activity (%) of protease, 0 [2]: 100%

[Cl-].[K+] [KCl]
effect on protease activity ([3]; metal 5 mM): active | Relative Activity (%) of protease [3, 13]: 158.50%

OC[C@@H](O)[C@@H](O)[C@H](O)[C@H](O)CO [Mannitol, mannitol]
residual activity of protease at 50° C. ([5]; 20% sugar alcohol, 30 min): 74.06 | residual activity of protease at 50° C. ([5]; 20% sugar alcohol, 60 min): 64.42 | residual activity of protease at 50° C. ([5]; 20% sugar alcohol, 90 min): 58.13 | residual activity of protease at 50° C. ([5]; 20% sugar alcohol, 120 min): 48.66 | residual activity of protease at 50° C. ([5]; 20% sugar alcohol, 180 min): 40.71 | residual activity of protease at 50° C. [5, 14]: 100

[Cl-].[Cl-].[Mg+2] [MgCl2]
Relative Activity (%) of protease [3, 13]: 132.24%

O=S(=O)([O-])[O-].[Mg+2] [MgSO4]
Relative Activity (%) of protease [3, 13]: 135.87%

[Cl][Mn][Cl] [MnCl2]
Relative Activity (%) of protease [3, 13]: 104.49%

O=S(=O)([O-])[O-].[Mn+2] [MnSO4]
Relative Activity (%) of protease [3, 13]: 108.39%

[Cl-].[Na+] [NaCl]
Residual Activity (%) of protease at 50° C. [4, 7]: 100.00% | Residual Activity (%) of protease at 50° C. [4, 8]: 77.79% | Residual Activity (%) of protease at 50° C. [4, 9]: 54.11% | Residual Activity (%) of protease at 50° C. [4, 10]: 49.26% | Residual Activity (%) of protease at 50° C. [4, 11]: 48.83% | Residual Activity (%) of protease at 50° C. [4, 12]: 37.44%

[Cl][Ni][Cl] [NiCl2]
Relative Activity (%) of protease [3, 13]: 65.60%

OC[C@H]1O[C@H](O[C@H]2O[C@H](CO)[C@@H](O)[C@H](O)[C@H]2O)[C@H](O)[C@@H](O)[C@@H]1O [Trehalose, trehalose]
residual activity of protease at 50° C. ([6]; additive 20%, 0 h): 100.00 | residual activity of protease at 50° C. ([6]; additive 20%, 1 h): 78.14 | residual activity of protease at 50° C. ([6]; additive 20%, 2 h): 62.15 | residual activity of protease at 50° C. ([6]; additive 20%, 3 h): 46.12 | residual activity of protease at 50° C. ([6]; additive 20%, 4 h): 39.80 | residual activity of protease at 50° C. ([6]; additive 40%, 0 h): 100.00 | residual activity of protease at 50° C. ([6]; additive 40%, 1 h): 85.27 | residual activity of protease at 50° C. ([6]; additive 40%, 2 h): 75.99 | residual activity of protease at 50° C. ([6]; additive 40%, 3 h): 75.47 | residual activity of protease at 50° C. ([6]; additive 40%, 4 h): 71.11 | residual activity of protease at 50° C. ([6]; additive 50%, 0 h): 100.00 | residual activity of protease at 50° C. ([6]; additive 50%, 1 h): 92.32 | residual activity of protease at 50° C. ([6]; additive 50%, 2 h): 89.98 | residual activity of protease at 50° C. ([6]; additive 50%, 3 h): 85.89 | residual activity of protease at 50° C. ([6]; additive 50%, 4 h): 81.89 | residual activity of protease at 50° C. ([6]; additive 50%, 4 h, listed as trehalose): ~80

[Cl-].[Cl-].[Zn+2] [ZnCl2]
Relative Activity (%) of protease [3, 13]: 60.27%

O=S(=O)([O-])[O-].[Zn+2] [ZnSO4]
Relative Activity (%) of protease [3, 13]: 58.03%

OCC(O)CO [glycerol]
residual activity of protease at 50° C. ([5]; 20% sugar alcohol, 30 min): 74.68 | residual activity of protease at 50° C. ([5]; 20% sugar alcohol, 60 min): 62.01 | residual activity of protease at 50° C. ([5]; 20% sugar alcohol, 90 min): 49.08 | residual activity of protease at 50° C. ([5]; 20% sugar alcohol, 120 min): 36.97 | residual activity of protease at 50° C. ([5]; 20% sugar alcohol, 180 min): 31.73 | residual activity of protease at 50° C. [5, 14]: 100

NCC(=O)O [glycine]
Residual Activity (%) of protease at 50° C. [4, 7]: 100.00% | Residual Activity (%) of protease at 50° C. [4, 8]: 74.85% | Residual Activity (%) of protease at 50° C. [4, 9]: 54.19% | Residual Activity (%) of protease at 50° C. [4, 10]: 43.16% | Residual Activity (%) of protease at 50° C. [4, 11]: 39.89% | Residual Activity (%) of protease at 50° C. [4, 12]: 31.62%

OC[C@@H](O)[C@@H](O)[C@H](O)[C@@H](O)CO [sorbitol]
residual activity of protease at 50° C. ([5]; 20% sugar alcohol, 30 min): 84.01 | residual activity of protease at 50° C. ([5]; 20% sugar alcohol, 60 min): 70.66 | residual activity of protease at 50° C. ([5]; 20% sugar alcohol, 90 min): 62.31 | residual activity of protease at 50° C. ([5]; 20% sugar alcohol, 120 min): 51.57 | residual activity of protease at 50° C. ([5]; 20% sugar alcohol, 180 min): 47 and 47.11 | residual activity of protease at 50° C. [5, 14]: 100 | residual activity of protease at 50° C. ([6]; additive 20%, 0 h): 100.0 | residual activity of protease at 50° C. ([6]; additive 20%, 1 h): 77.28 | residual activity of protease at 50° C. ([6]; additive 20%, 2 h): 49.25 | residual activity of protease at 50° C. ([6]; additive 20%, 3 h): 42.99 | residual activity of protease at 50° C. ([6]; additive 20%, 4 h): 33.11 | residual activity of protease at 50° C. ([6]; additive 40%, 0 h): 100.0 | residual activity of protease at 50° C. ([6]; additive 40%, 1 h): 87.00 | residual activity of protease at 50° C. ([6]; additive 40%, 2 h): 70.69 | residual activity of protease at 50° C. ([6]; additive 40%, 3 h): 61.54 | residual activity of protease at 50° C. ([6]; additive 40%, 4 h): 58.57 | residual activity of protease at 50° C. ([6]; additive 50%, 0 h): 100.0 | residual activity of protease at 50° C. ([6]; additive 50%, 1 h): 91.31 | residual activity of protease at 50° C. ([6]; additive 50%, 2 h): 88.44 | residual activity of protease at 50° C. ([6]; additive 50%, 3 h): 79.44 | residual activity of protease at 50° C. ([6]; additive 50%, 4 h): ~80 | residual activity of protease at 50° C. ([6]; additive 50%, 4 h, listed as Sorbitol): 78.25

OC[C@@H](O)[C@H](O)[C@@H](O)CO [xylitol]
residual activity of protease at 50° C. ([5]; 20% sugar alcohol, 30 min): 76.31 | residual activity of protease at 50° C. ([5]; 20% sugar alcohol, 60 min): 63.36 | residual activity of protease at 50° C. ([5]; 20% sugar alcohol, 90 min): 52.42 | residual activity of protease at 50° C. ([5]; 20% sugar alcohol, 120 min): 44.61 | residual activity of protease at 50° C. ([5]; 20% sugar alcohol, 180 min): 39.25 | residual activity of protease at 50° C. [5, 14]: 100
